Data taken from patent US6660768B2, “Parasiticidal compositions and methods of use” (Schering-Plough Animal Health Corporation, priority 2001, dated 2003).

Experiments:
[1] = Example 3B: solubility of permethrin in PM (propylene glycol monomethyl ether), DM (diethylene glycol monomethyl ether) and PM or DPM (dipropylene glycol monomethyl ether)/d-limonene mixtures at low temperatures, seeded
Procedure: These solutions were poured into 100 mL tubes with screw top caps. These tubes were placed in the cold water bath and allowed to come to equilibrium at the temperature of the bath. […] The seeded preparations were then thoroughly shaken, replaced in the bath and allowed to remain in the bath for a 24 hour period. The preparations were then examined for crystallization, then again thoroughly agitated and replaced in the bath for an additional time period. Samples of the supernatant were removed after additional crystallization had occurred.
The solvent mixtures tested were: dipropylene glycol monomethyl ether/d-limonene and propylene glycol monomethyl ether/d-limonene.
These solvent mixtures were evaluated at ratios of 2:1, 1:1, 1:2, and then at 8:2 and 9:1 (the first number refers to one of the glycol ethers, the second number refers to d-limonene).

[2] = Example 3C: solubility of 30% permethrin in d-limonene/propylene glycol monomethyl ether mixtures at -15° C.; assay type: physicochemical; conditions: initial 30% permethrin
Procedure: The temperature was regulated to −15° C. The solutions were placed in the bath and allowed to crystallize and reach equilibrium.

[3] = Example 3D: solubility of permethrin in propylene glycol monomethyl ether at 20° C. after crystallization at 0° C.; assay type: physicochemical
Procedure: The solution was placed in the bath, and continually stirred. The bath temperature was lowered to 0° C. After crystallization occurred in the solution, the bath temperature setting was raised to 20° C. and the stirred slurry was allowed to equilibrate over a three-day period. After this time, samples of the supernatant were pulled on consecutive days. The crystals were separated from the liquid layer by filtration, and the crystals were washed with petroleum ether. […] The crystals were washed to remove any residual solution that might contaminant their analysis.

For `CC1(C)C(C=C(Cl)Cl)C1C(=O)OCc1cccc(Oc2ccccc2)c1` (stereo not drawn) [permethrin], the “% Total Permethrin” value ([1]; 70% permethrin in DPM/d-limonene, 50% d-limonene of solvent mixture, 0° C.) was 65.66%, the “% Total Permethrin” value ([1]; 70% permethrin in DPM/d-limonene, 50% d-limonene of solvent mixture, 5° C.) was 68.48% and the “% Total Permethrin” value ([1]; 70% permethrin in DPM/d-limonene, 50% d-limonene of solvent mixture, 10° C.) was 66.70%. The “% Total Permethrin” value ([1]; 70% permethrin in DPM/d-limonene, 67% d-limonene of solvent mixture, 0° C.) was 66.05%, the “% Total Permethrin” value ([1]; 70% permethrin in DPM/d-limonene, 67% d-limonene of solvent mixture, 5° C.) was 69.38% and the “% Total Permethrin” value ([1]; 70% permethrin in DPM/d-limonene, 67% d-limonene of solvent mixture, 10° C.) was 67.98%. The “% Total Permethrin” value ([1]; 70% permethrin in DPM/d-limonene, 100% d-limonene of solvent mixture, 0° C.) was 64.61%, the “% Total Permethrin” value ([1]; 70% permethrin in DPM/d-limonene, 100% d-limonene of solvent mixture, 5° C.) was 66.05% and the “% Total Permethrin” value ([1]; 70% permethrin in DPM/d-limonene, 100% d-limonene of solvent mixture, 10° C.) was 69.30%. For the same compound, the “% Total Permethrin” value ([1]; 70% permethrin in PM/d-limonene, 0% d-limonene of solvent mixture, 0° C.) was 57.91%, the “% Total Permethrin” value ([1]; 70% permethrin in PM/d-limonene, 0% d-limonene of solvent mixture, 5° C.) was 64.79% and the “% Total Permethrin” value ([1]; 70% permethrin in PM/d-limonene, 10% d-limonene of solvent mixture, 10° C.) was 66.70%. For the same compound, the “% Total Permethrin” value ([1]; 70% permethrin in PM/d-limonene, 20% d-limonene of solvent mixture, 10° C.) was 66.92%, the “% Total Permethrin” value ([1]; 70% permethrin in PM/d-limonene, 33% d-limonene of solvent mixture, 0° C.) was 65.20% and the “% Total Permethrin” value ([1]; 70% permethrin in PM/d-limonene, 33% d-limonene of solvent mixture, 5° C.) was 67.36%. For the same compound, the “% Total Permethrin” value ([1]; 70% permethrin in PM/d-limonene, 33% d-limonene of solvent mixture, 10° C.) was 67.80%, the “% Total Permethrin” value ([1]; 70% permethrin in PM/d-limonene, 50% d-limonene of solvent mixture, 0° C.) was 65.36% and the “% Total Permethrin” value ([1]; 70% permethrin in PM/d-limonene, 50% d-limonene of solvent mixture, 5° C.) was 69.65%. For the same compound, the “% Total Permethrin” value ([1]; 70% permethrin in PM/d-limonene, 50% d-limonene of solvent mixture, 10° C.) was 68.40%, the “% Total Permethrin” value ([1]; 70% permethrin in PM/d-limonene, 67% d-limonene of solvent mixture, 0° C.) was 65.94% and the “% Total Permethrin” value ([1]; 70% permethrin in PM/d-limonene, 67% d-limonene of solvent mixture, 5° C.) was 68.33%. For the same compound, the “% Total Permethrin” value ([1]; 70% permethrin in PM/d-limonene, 100% d-limonene of solvent mixture, 0° C.) was 64.61%, the “% Total Permethrin” value ([1]; 70% permethrin in PM/d-limonene, 100% d-limonene of solvent mixture, 5° C.) was 66.05% and the “% permethrin remaining in solution” value ([1]; DM, 5° C., Original % permethrin 50) was 46.00%. For the same compound, the “% permethrin remaining in solution” value ([1]; DM, 5° C., Original % permethrin 55) was 51.74%, the “% permethrin remaining in solution” value ([1]; DM, 5° C., Original % permethrin 60) was 55.09% and the “% permethrin remaining in solution” value ([1]; DM, 5° C., Original % permethrin 65) was 60.22%. For the same compound, the “% permethrin remaining in solution” value ([1]; DM, 10° C., Original % permethrin 50) was 46.80%, the “% permethrin remaining in solution” value ([1]; DM, 10° C., Original % permethrin 55) was 50.72% and the “% permethrin remaining in solution” value ([1]; DM, 10° C., Original % permethrin 60) was 56.17%. The “% permethrin remaining in solution” value ([1]; DM, 20° C., Original % permethrin 50) was 50.55%, the “% permethrin remaining in solution” value ([1]; DM, 20° C., Original % permethrin 55) was 55.14% and the “% permethrin remaining in solution” value ([1]; DM, 20° C., Original % permethrin 60) was 60.05%. For the same compound, the “% permethrin remaining in solution” value ([1]; DM, 20° C., Original % permethrin 65) was 64.85%, the “% permethrin remaining in solution” value ([1]; DM, 20° C., Original % permethrin 75) was 74.20% and the “% permethrin remaining in solution” value ([1]; DM, 25° C., Original % permethrin 50) was 49.43%. For the same compound, the “% permethrin remaining in solution” value ([1]; DM, 25° C., Original % permethrin 55) was 53.98%, the “% permethrin remaining in solution” value ([1]; DM, 25° C., Original % permethrin 60) was 61.10% and the “% permethrin remaining in solution” value ([1]; DM, 25° C., Original % permethrin 65) was 64.25%. For the same compound, the “% permethrin remaining in solution” value ([1]; DM, 25° C., Original % permethrin 75) was 74.53%, the “% permethrin remaining in solution” value ([1]; PM, 5° C., Original % permethrin 50) was 46.61% and the “% permethrin remaining in solution” value ([1]; PM, 5° C., Original % permethrin 55) was 52.71%. For the same compound, the “% permethrin remaining in solution” value ([1]; PM, 5° C., Original % permethrin 60) was 56.69%, the “% permethrin remaining in solution” value ([1]; PM, 5° C., Original % permethrin 65) was 61.50% and the “% permethrin remaining in solution” value ([1]; PM, 5° C., Original % permethrin 75) was 70.89%. For the same compound, the “% permethrin remaining in solution” value ([1]; PM, 10° C., Original % permethrin 60) was 59.08%, the “% permethrin remaining in solution” value ([1]; PM, 10° C., Original % permethrin 65) was 61.63% and the “% permethrin remaining in solution” value ([1]; PM, 10° C., Original % permethrin 75) was 72.22%. The “% permethrin remaining in solution” value ([1]; PM, 20° C., Original % permethrin 50) was 50.60%, the “% permethrin remaining in solution” value ([1]; PM, 20° C., Original % permethrin 55) was 55.54% and the “% permethrin remaining in solution” value ([1]; PM, 20° C., Original % permethrin 60) was 61.27%. The “% permethrin remaining in solution” value ([1]; PM, 20° C., Original % permethrin 65) was 66.25%, the “% permethrin remaining in solution” value ([1]; PM, 20° C., Original % permethrin 75) was 76.84% and the “% permethrin remaining in solution” value ([1]; PM, 25° C., Original % permethrin 50) was 51.28%. The “% permethrin remaining in solution” value ([1]; PM, 25° C., Original % permethrin 55) was 56.19%, the “% permethrin remaining in solution” value ([1]; PM, 25° C., Original % permethrin 60) was 60.99% and the “% permethrin remaining in solution” value ([1]; PM, 25° C., Original % permethrin 65) was 66.71%. The “% permethrin remaining in solution” value ([1]; PM, 25° C., Original % permethrin 75) was 75.82%, the “% permethrin in solution” value ([2]; 0% d-limonene in formula) was 23.57% and the “% permethrin in solution” value ([2]; 20% d-limonene in formula) was 24.78%. For the same compound, the “% permethrin in solution” value ([2]; 33% d-limonene in formula) was 25.52%, the “% permethrin in solution” value ([2]; 50% d-limonene in formula) was 27.20% and the “% permethrin in solution” value ([2]; 67% d-limonene in formula) was 27.51%. For the same compound, the “% permethrin in solution” value ([2]; 100% d-limonene in formula) was 25.93%, the “% Permethrin” value ([3]; Assay of Crystals (filtered, washed), as the cis isomer) was 100% as the cis isomer and the “% Permethrin” value ([3]; Initial Assay of 70% Solution in propylene glycol monomethyl ether) was 72.86%. For the same compound, the solubility of permethrin ([3]; in propylene glycol monomethyl ether, 20° C.) was “greater than 70%”, the “% Permethrin” value ([3]; supernatant, propylene glycol monomethyl ether, 20° C., 2nd Day after Equilibrium Reached) was 72.96% and the “% Permethrin” value ([3]; supernatant, propylene glycol monomethyl ether, 20° C., Assay after Equilibrium Reached) was 72.93%.
